The results in this text go back to ChEMBL document CHEMBL4622884, “Synthesis of novel 3,5,6-trisubstituted 2-pyridone derivatives and evaluation for their anti-inflammatory activity” (Bioorg Med Chem, 2020).

Calls of active or inactive are those of the source. No cut-off for these calls is given here.

Data set [1] deals with T1, Prostaglandin G/H synthase 2 (Homo sapiens) (UniProt P35354).
T1 sequence (whole entry): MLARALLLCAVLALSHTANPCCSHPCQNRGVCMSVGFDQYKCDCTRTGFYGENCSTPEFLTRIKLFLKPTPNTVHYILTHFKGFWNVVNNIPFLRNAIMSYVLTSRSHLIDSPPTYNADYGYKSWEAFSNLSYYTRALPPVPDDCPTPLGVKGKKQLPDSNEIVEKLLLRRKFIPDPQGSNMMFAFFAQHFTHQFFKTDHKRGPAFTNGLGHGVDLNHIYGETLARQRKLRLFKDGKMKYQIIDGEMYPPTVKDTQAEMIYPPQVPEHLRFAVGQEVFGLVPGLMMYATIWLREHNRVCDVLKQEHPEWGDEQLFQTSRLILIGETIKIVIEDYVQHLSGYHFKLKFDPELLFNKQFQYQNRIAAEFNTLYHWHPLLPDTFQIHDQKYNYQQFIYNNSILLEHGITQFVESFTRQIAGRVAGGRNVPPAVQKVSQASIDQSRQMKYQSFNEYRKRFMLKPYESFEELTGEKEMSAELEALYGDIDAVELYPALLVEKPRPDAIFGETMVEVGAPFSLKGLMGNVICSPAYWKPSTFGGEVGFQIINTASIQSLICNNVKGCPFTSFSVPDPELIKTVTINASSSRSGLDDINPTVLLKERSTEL
The data set can be described thus: Inhibition of recombinant human COX-2 at 1.95 uM by microplate reader based assay relative to control.

The target in data set [2] is T1, Prostaglandin G/H synthase 2 (Homo sapiens). The data set is described as follows: Inhibition of recombinant human COX-2 at 31.25 uM by microplate reader based assay relative to control.
In data set [3] the test system is Mus musculus. The data set is described as follows: Anti-inflammatory activity against croton oil-induced ear edema in Swiss mouse model assessed as inhibition of myeloperoxidase activity at 1.25 mg/ear administered topically immediately after croton oil-stimulation and measured after 6 hrs by microplate spectrophotometry relative to control. The class given is functional.

The test system of data set [4] is Mus musculus. The data set can be described thus: Anti-inflammatory activity against croton oil-induced ear edema in Swiss mouse model assessed as inhibition of myeloperoxidase activity at 0.625 mg/ear administered topically immediately after croton oil-stimulation and measured after 6 hrs by microplate spectrophotometry relative to control. It counts as functional.

In data set [5] the target is T2, COX-1 (Prostaglandin G/H synthase 1) (Ovis aries, UniProt P05979).
T2 sequence (P05979 whole entry): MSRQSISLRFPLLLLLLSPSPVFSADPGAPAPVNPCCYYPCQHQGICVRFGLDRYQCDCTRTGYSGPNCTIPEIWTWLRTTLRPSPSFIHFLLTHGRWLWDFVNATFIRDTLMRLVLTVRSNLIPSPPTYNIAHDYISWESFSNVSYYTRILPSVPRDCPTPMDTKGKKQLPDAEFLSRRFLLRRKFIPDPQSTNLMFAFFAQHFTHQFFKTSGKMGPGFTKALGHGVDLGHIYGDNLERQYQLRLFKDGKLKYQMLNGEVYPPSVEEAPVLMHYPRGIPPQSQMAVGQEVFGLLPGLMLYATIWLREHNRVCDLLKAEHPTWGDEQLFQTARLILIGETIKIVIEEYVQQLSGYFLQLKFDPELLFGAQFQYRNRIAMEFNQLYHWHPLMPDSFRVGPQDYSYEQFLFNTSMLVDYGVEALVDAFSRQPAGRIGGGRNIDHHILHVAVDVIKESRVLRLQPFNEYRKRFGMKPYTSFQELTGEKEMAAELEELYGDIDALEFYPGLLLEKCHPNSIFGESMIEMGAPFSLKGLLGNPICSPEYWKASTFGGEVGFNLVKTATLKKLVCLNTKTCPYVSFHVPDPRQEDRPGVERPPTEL
The data set can be described thus: Inhibition of ovine COX-1 at 31.25 uM by microplate reader based assay relative to control. The following applies: sheep, ovine COX-1 enzyme.

Data set [6] relates to Mus musculus. The data set is described as follows: Anti-inflammatory activity against croton oil-induced ear edema in Swiss mouse model assessed as inhibition of ear edema at 0.625 mg/ear administered topically immediately after croton oil-stimulation and measured after 6 hrs relative to control. It counts as functional.
The test system of data set [7] is Mus musculus. The data set can be described thus: Anti-inflammatory activity against croton oil-induced ear edema in Swiss mouse model assessed as inhibition of ear edema at 1.25 mg/ear administered topically immediately after croton oil-stimulation and measured after 6 hrs relative to control. The class given is functional.
A short description of data set [8]: Cytotoxicity against mouse J774A1 cells assessed as reduction in cell viability measured after 48 hrs by MTT assay. The class given is cell-based, J774.A1.
A short description of data set [9]: Cytotoxicity against mouse L929 cells assessed as reduction in cell viability measured after 72 hrs by MTT assay. The class given is cell-based.
Data set [10] deals with Mus musculus. The data set can be described thus: Anti-inflammatory activity against croton oil-induced ear edema in Swiss mouse model assessed as inhibition of myeloperoxidase activity at 1 mg/ear administered topically immediately after croton oil-stimulation and measured after 6 hrs by microplate spectrophotometry relative to control. The class given is functional.
In data set [11] the test system is Mus musculus. The data set is described as follows: Anti-inflammatory activity against croton oil-induced ear edema in Swiss mouse model assessed as inhibition of ear edema at 1 mg/ear administered topically immediately after croton oil-stimulation and measured after 6 hrs relative to control. The class given is functional.
For data set [12], the target named is T2, COX-1 (Prostaglandin G/H synthase 1). The data set is described as follows: Inhibition of ovine COX-1 at 1.95 uM by microplate reader based assay relative to control. The following applies: sheep, ovine COX-1 enzyme.
The species entered for another data set is Ovis aries. The data set can be described thus: Selectivity index, ratio of IC50 of ovine COX-1 to […].

On to `CCOC(=O)c1[nH]c(=O)c(C#N)cc1C(=O)c1ccc([N+](=O)[O-])cc1.CNC` [listing 1 of 2 here], for which the inhibition in data set [1] was determined as 74%; in [2], 10.1%.
As for `CCOC(=O)c1[nH]c(=O)c(C(=O)O)cc1C(=O)c1ccc(Cl)cc1`, the “inhibition (INH)” value was 93% in the data set with Mus musculus [3] and 99% in the data set on Mus musculus [4].
For the molecule `CCOC(=O)c1[nH]c(=O)c(C(=O)OCC)cc1C(=O)c1ccc(Cl)cc1`, the “inhibition (INH)” value in the data set with Mus musculus [3] is reported as 88.1%; with Mus musculus [4], 94.4%.
Turning to `CCOC(=O)c1[nH]c(=O)c(C#N)cc1C(=O)c1ccc([N+](=O)[O-])cc1.CNC` [listing 2 of 2 here], the “inhibition (INH)” value in the data set with Mus musculus [3] is on record as 98.9%; in the data set on Mus musculus [6] it was 70%; in the data set with Mus musculus [4], 99%; in the data set on Mus musculus [7] it was 98.9%. Also, the inhibition at 31.25 µM in data set [5] was determined as 16.3%. In addition, the CC50 at 48 h in data set [8] is less than 100 µM. The 50% cytotoxic concentration (CC50) at 72 h in data set [9] turned out to be 257 µM.
As to `CCOC(=O)c1[nH]c(=O)c(C#N)cc1C(=O)c1ccccc1`, the inhibition result in the data set on Mus musculus [7] was “Active”. The CC50 at 48 h in data set [8] was 215 µM. In data set [9], the CC50 at 72 h is 465 µM.
Regarding `CCOC(=O)c1[nH]c(=O)c(C#N)cc1C(=O)c1ccc([N+](=O)[O-])cc1`, the “inhibition (INH)” value in the data set with Mus musculus [3] stood at 99%; in the data set with Mus musculus [4] it was 99%; in the data set on Mus musculus [7], 93%. The CC50 at 48 h in data set [8] is less than 100 µM. Further, in [9], the CC50 at 72 h stood at 213 µM.
Regarding `N#Cc1cc(C(=O)c2ccc(Cl)cc2)c(C(=O)O)[nH]c1=O`, the “inhibition (INH)” value in the data set on Mus musculus [6] was found to be 74.5%; in the data set on Mus musculus [4], 84.5%.
As for `COc1ccc2c(c1)c(CC(=O)O)c(C)n2C(=O)c1ccc(Cl)cc1` [INDOMETHACIN], the “inhibition (INH)” value came out at 48% with Mus musculus [10] and 98.2% in the data set with Mus musculus [11].
As for `CCOC(=O)c1[nH]c(=O)c(C#N)cc1C(=O)c1ccc(Br)cc1`, the inhibition entry with Mus musculus [7] was “Active”. For the same molecule, the CC50 at 48 h in data set [8] is less than 100 µM. The CC50 at 72 h in data set [9] is 242 µM.
Regarding `N#Cc1cc(C(=O)c2ccc([N+](=O)[O-])cc2)c(C(=O)O)[nH]c1=O`, the “inhibition (INH)” value was 97.6% in the data set with Mus musculus [3], 99% in the data set on Mus musculus [4] and 64.6% in the data set on Mus musculus [7].
With `O=C(c1ccc([N+](=O)[O-])cc1)c1cc(C(=O)O)c(=O)[nH]c1C(=O)O`, the “inhibition (INH)” value was determined as 94.3% in the data set with Mus musculus [3], 90.8% in the data set with Mus musculus [6], 99.6% with Mus musculus [4] and 93% in the data set on Mus musculus [7]. Besides, the results for the inhibition in [1] and in [2] were 20.2% and 38.1%, respectively. Besides, the inhibition at 31.25 µM in data set [5] stood at 36.8%. In addition, in [12], the inhibition at 1.95 µM is 12.4%. The CC50 at 48 h in data set [8] was 388 µM. The half-maximal cytotoxic concentration (CC50) at 72 h in data set [9] is 439 µM.
As to `CCOC(=O)c1[nH]c(=O)c(C#N)cc1C(=O)c1ccc(OC)cc1`, the inhibition result in the data set on Mus musculus [7] is “Active”. In addition, in data set [8], the CC50 at 48 h was less than 100 µM. Besides, the CC50 at 72 h in data set [9] is 259 µM.
As to `CCOC(=O)c1[nH]c(=O)c(C(=O)OCC)cc1C(=O)c1ccc([N+](=O)[O-])cc1`, the “inhibition (INH)” value in the data set with Mus musculus [3] amounted to 99%; with Mus musculus [6], 66.3%; in the data set on Mus musculus [4] it was 99%; with Mus musculus [7], 87.9%.
Regarding `CCOC(=O)c1[nH]c(=O)c(C#N)cc1C(=O)c1ccc(C)cc1`, the inhibition entry with Mus musculus [7] was “Active”. Also, the CC50 at 48 h in [8] is 194 µM. Moreover, in [9], the CC50 at 72 h came out at 512 µM.
Regarding `CCOC(=O)c1[nH]c(=O)c(C#N)cc1C(=O)c1ccc(Cl)cc1.CNC`, the “inhibition (INH)” value is 99.9% in the data set with Mus musculus [3], 70.1% with Mus musculus [6], 99% with Mus musculus [4] and 71.3% in the data set with Mus musculus [7].
Turning to `CCOC(=O)c1[nH]c(=O)c(C#N)cc1C(=O)c1ccc(Cl)cc1`, the “inhibition (INH)” value came out at 99% with Mus musculus [3], 99% in the data set on Mus musculus [4] and 73.9% in the data set with Mus musculus [7]. Further, in [8], the CC50 at 48 h is less than 100 µM. In addition, the CC50 at 72 h in data set [9] turned out to be 218 µM.
On to `O=C(c1ccc(Cl)cc1)c1cc(C(=O)O)c(=O)[nH]c1C(=O)O`, for which the “inhibition (INH)” value with Mus musculus [3] stood at 99%; in the data set with Mus musculus [6] it was 84%; with Mus musculus [4], 89.4%; in the data set with Mus musculus [7] it was 54.2%.
`CS(=O)(=O)c1ccc(-c2cc(Cn3ccnc3)c3ccc(C4CCCCC4)c(C4CCCCC4)c3n2)cc1`: the Ratio IC50 in the data set listed under Ovis aries turned out to be 548.
As to `CCOC(=O)c1[nH]c(=O)c(C#N)cc1C(=O)c1ccc(F)cc1`, in the data set on Mus musculus [7], the inhibition result is “Active”. For the same molecule, the CC50 at 48 h in data set [8] was less than 100 µM. For the same molecule, in data set [9], the CC50 at 72 h came to 232 µM.
